Assay results taken from article PMC10451648 (Antibiotics, 2023).
Converted amounts (≈) assume the structure as drawn. “Also recorded” adds a separate entry of the source. Read-outs that look alike come from different tables or passages of the source. Square brackets hold non-standard residues; d marks the D form. Peptide text beside a SMILES is read from it. Api = NC1(C(=O)O)CCNCC1; Aib = CC(C)(N)C(=O)O

Key:
Proteinase K = test: 0.002% (v/v) Proteinase K; settings: 37 °C, up to 24 h
Escherichia coli DH5α = type: cell-based; settings: broth microdilution, 10^4 CFUs per mL, 18 h at 35 °C; MIC = lowest concentration that completely inhibited bacterial growth; final conc. 0.39 to 100
Protocol: (§1) The antimicrobial activities of peptides 1–8 against Gram-positive Staphylococcus aureus, Gram-negative Escherichia coli DH5α, Pseudomonas aeruginosa, and multidrug-resistant P. aeruginosa (MDRP) were evaluated. The minimum inhibitory concentration (MIC) against these bacteria was measured as an indicator of antimicrobial activity, and the results are discussed in Table 2.
(§2) One type of Gram-positive bacteria, S. aureus NBRC 13276, and three Gram-negative bacteria, E. coli DH5α, P. aeruginosa NBRC 13275, and MDRP, were selected for the evaluation of the antimicrobial activity of the synthesized peptides. The selected bacterial strains were obtained from the Biological Resource Center, NITE (NBRC; Tokyo, Japan), and Escherichia coli DH5α cells were purchased from BioDynamics Laboratory, Inc. (Tokyo, Japan). The antimicrobial activities of the tested peptides 1–8 against each stain were examined by the standard broth microdilution method, as previously reported. Briefly, the bacteria were seeded and grown overnight at 37 °C on Agar media for other organisms i (Agar medium) and then collected with the media for other organisms ii (liquid medium), according to the 17th revision of Japanese Pharmacopoeia. Next, 10 μL of the peptide solution per well was added to each well of a sterile 96-well plate, and 90 μL per well of inoculation was mixed with 10^4 CFUs (colony forming units) per mL and added to each well, and the plate was incubated for 18 h at 35 °C.

P. aeruginosa NBRC 13275 = type: cell-based, Pseudomonas aeruginosa; settings: NBRC 13275, 18 h
Protocol: as §1, §2

[1] = system: multidrug-resistant P. aeruginosa (MDRP); type: cell-based, Pseudomonas aeruginosa; settings: multidrug-resistant (MDRP, 18 h)
Protocol: as §1, §2

S. aureus NBRC 13276 = type: cell-based, Staphylococcus aureus
Protocol: as §1, §2

human red blood cells = test: Hemolysis activity against red blood cells; settings: human RBCs in 172 mM Tris-HCl pH 7.6, 30 min at 37 °C, absorbance 535 nm; DMSO = 0%, M-Lycotoxin = 100%; final peptide conc. 100 to 0.39
Protocol: AMPs primarily target microbial membranes, leading to their antimicrobial activity through membrane lysis. However, it is important to consider their potential effects on human cell membranes, as this could raise concerns regarding cytotoxicity. […] Hemolytic activity was assessed by measuring the absorption at 535 nm, which indicates the leakage of red blood cell cytoplasmic contents and hemoglobin.
Human red blood cells (RBCs) were supplied by the Japanese Red Cross Society (Tokyo, Japan). The hemolytic assay of the synthesized peptides was performed as previously reported. Briefly, 5.0 mL of the total erythrocytes were washed three times with 172 mM Tris-HCl buffer (pH = 7.6, wash buffer:WB) and 1.0 mL of precipitated erythrocytes was diluted with 9.0 mL of WB. Then, 0.5 mL of the suspension was diluted in WB, and 50 µL of RBC solution was incubated with 50 µL of each peptide for 30 min at 37 °C (final peptide conc. from 100 to 0.39 μM). The suspensions were then centrifuged at 400 rpm for 5 min. The absorbance of the supernatant was measured at a wavelength of 535 nm. M-Lycotoxin [22], which is a typical hemolytic toxic peptide derived from Wolf spider, was used as a positive control, and the absorbance of the sample from DMSO and M-Lycotoxin treatment was defined as 0 and 100%, respectively.

[2] = PBS without FBS
in vitro = settings: 50% fetal bovine serum in PBS
[3] = broth microdilution, 10^4 CFUs per mL, 18 h at 35 °C, MIC = lowest concentration that completely inhibited bacterial growth, final conc. 0.39 to 100

Row | Compound | cleaved bond (Proteinase K) | MIC, E. Coli DH5α, Gram(−) (Escherichia coli DH5α) [µM] | MIC, P. aeruginosa, Gram(−) (P. aeruginosa NBRC 13275) [µM] | MIC, MDRP [1] [µM] | MIC, S. aureus, Gram(+) (S. aureus NBRC 13276; NBRC 13276, 18 h) [µM] | Hemolysis (concentration at which hemolytic activity is exhibited) (human red blood cells) [µM] | MIC, S. aureus, Gram(+) (S. aureus NBRC 13276; [3]) [µM] | Stability in PBS [2] | remaining at 24 h (in vitro) [%] | residual amount after 24 h proteinase K treatment [%]
1 | H-GIKKFLKS[Aib]KKFVK[Aib]FK-NH2 | Phe5-Leu6, 24 h; also recorded: Phe16-Lys17 | – | – | – | – | – | – | – | – | –
2 | H-Gly-Ile-Lys-Api-Phe-Leu-Lys-Ser-Aib-Lys-Lys-Phe-Val-Lys-Aib-Phe-Lys-NH2 | Phe16-Lys17, 24 h | – | – | – | – | – | – | – | – | –
3 | CC[C@H](C)[C@H](NC(=O)CN)C(=O)N[C@@H](CCCCN)C(=O)N[C@@H](CCCCN)C(=O)N[C@@H](Cc1ccccc1)C(=O)N[C@@H](CC(C)C)C(=O)N[C@@H](CCCCN)C(=O)N[C@@H](CO)C(=O)NC(C)(C)C(=O)NC1(C(=O)N[C@@H](CCCCN)C(=O)N[C@@H](Cc2ccccc2)C(=O)N[C@H](C(=O)N[C@@H](CCCCN)C(=O)NC(C)(C)C(=O)N[C@@H](Cc2ccccc2)C(=O)N[C@@H](CCCCN)C(N)=O)C(C)C)CCNCC1 [Peptide 5] (H-GIKKFLKS[Aib][Api]KFVK[Aib]FK-NH2) | – | 1.56 (≈ 3.11 µg/mL) | 3.125 (≈ 6.23 µg/mL) | 6.25 (≈ 12.5 µg/mL) | 25 (≈ 49.8 µg/mL) | 50 | – | – | – | –
4 | CC[C@H](C)[C@H](NC(=O)CN)C(=O)N[C@@H](CCCCN)C(=O)N[C@@H](CCCCN)C(=O)N[C@@H](Cc1ccccc1)C(=O)N[C@@H](CC(C)C)C(=O)N[C@@H](CCCCN)C(=O)N[C@@H](CO)C(=O)NC(C)(C)C(=O)N[C@@H](CCCCN)C(=O)NC1(C(=O)N[C@@H](Cc2ccccc2)C(=O)N[C@H](C(=O)N[C@@H](CCCCN)C(=O)NC(C)(C)C(=O)N[C@@H](Cc2ccccc2)C(=O)N[C@@H](CCCCN)C(N)=O)C(C)C)CCNCC1 [Peptide 6] (H-GIKKFLKS[Aib]K[Api]FVK[Aib]FK-NH2) | – | 1.56 (≈ 3.11 µg/mL) | 3.125 (≈ 6.23 µg/mL) | 6.25 (≈ 12.5 µg/mL) | 12.5 (≈ 24.9 µg/mL) | 50 | – | – | – | –
5 | H-Gly-Ile-Api-Lys-Phe-Leu-Lys-Ser-Aib-Lys-Lys-Phe-Val-Lys-Aib-Phe-Lys-NH2 | Phe16-Lys17, 24 h | – | – | – | – | – | – | – | – | –
6 | CC[C@H](C)[C@H](NC(=O)CN)C(=O)N[C@@H](CCCCN)C(=O)N[C@@H](CCCCN)C(=O)N[C@@H](Cc1ccccc1)C(=O)N[C@@H](CC(C)C)C(=O)N[C@@H](CCCCN)C(=O)N[C@@H](CO)C(=O)NC(C)(C)C(=O)N[C@@H](CCCCN)C(=O)N[C@@H](CCCCN)C(=O)N[C@@H](Cc1ccccc1)C(=O)N[C@H](C(=O)NC1(C(=O)NC(C)(C)C(=O)N[C@@H](Cc2ccccc2)C(=O)N[C@@H](CCCCN)C(N)=O)CCNCC1)C(C)C [Peptide 7] (H-GIKKFLKS[Aib]KKFV[Api][Aib]FK-NH2) | – | 1.56 (≈ 3.11 µg/mL) | 3.125 (≈ 6.23 µg/mL) | 6.25 (≈ 12.5 µg/mL) | – | 12.5 | 12.5 (≈ 24.9 µg/mL) | – | – | –
7 | CC[C@H](C)[C@H](NC(=O)CN)C(=O)N[C@@H](CCCCN)C(=O)NC1(C(=O)N[C@@H](Cc2ccccc2)C(=O)N[C@@H](CC(C)C)C(=O)N[C@@H](CCCCN)C(=O)N[C@@H](CO)C(=O)NC(C)(C)C(=O)N[C@@H](CCCCN)C(=O)N[C@@H](CCCCN)C(=O)N[C@@H](Cc2ccccc2)C(=O)N[C@H](C(=O)N[C@@H](CCCCN)C(=O)NC(C)(C)C(=O)N[C@@H](Cc2ccccc2)C(=O)N[C@@H](CCCCN)C(N)=O)C(C)C)CCNCC1 [Peptide 3] (H-GIK[Api]FLKS[Aib]KKFVK[Aib]FK-NH2) | – | 3.125 (≈ 6.23 µg/mL) | 3.125 (≈ 6.23 µg/mL) | – | 25 (≈ 49.8 µg/mL) | 25 | – | – | – | –
8 | CC[C@H](C)[C@H](NC(=O)CN)C(=O)NC1(C(=O)N[C@@H](CCCCN)C(=O)N[C@@H](Cc2ccccc2)C(=O)N[C@@H](CC(C)C)C(=O)N[C@@H](CCCCN)C(=O)N[C@@H](CO)C(=O)NC(C)(C)C(=O)N[C@@H](CCCCN)C(=O)N[C@@H](CCCCN)C(=O)N[C@@H](Cc2ccccc2)C(=O)N[C@H](C(=O)N[C@@H](CCCCN)C(=O)NC(C)(C)C(=O)N[C@@H](Cc2ccccc2)C(=O)N[C@@H](CCCCN)C(N)=O)C(C)C)CCNCC1 [Peptide 2] (H-GI[Api]KFLKS[Aib]KKFVK[Aib]FK-NH2) | – | 3.125 (≈ 6.23 µg/mL) | 3.125 (≈ 6.23 µg/mL) | – | – | 12.5 | 12.5 (≈ 24.9 µg/mL) | stable in PBS | 70 | > 60
9 | CC[C@H](C)[C@H](NC(=O)CN)C(=O)N[C@@H](CCCCN)C(=O)N[C@@H](CCCCN)C(=O)N[C@@H](Cc1ccccc1)C(=O)N[C@@H](CC(C)C)C(=O)N[C@@H](CCCCN)C(=O)N[C@@H](CO)C(=O)NC(C)(C)C(=O)N[C@@H](CCCCN)C(=O)N[C@@H](CCCCN)C(=O)N[C@@H](Cc1ccccc1)C(=O)N[C@H](C(=O)N[C@@H](CCCCN)C(=O)NC(C)(C)C(=O)N[C@@H](Cc1ccccc1)C(=O)NC1(C(N)=O)CCNCC1)C(C)C [Peptide 8] (H-GIKKFLKS[Aib]KKFVK[Aib]F[Api]-NH2) | – | 3.125 (≈ 6.23 µg/mL) | 3.125 (≈ 6.23 µg/mL) | 12.5 (≈ 24.9 µg/mL) | 12.5 (≈ 24.9 µg/mL) | 100 | – | – | – | –
10 | H-Gly-Ile-Lys-Lys-Phe-Leu-Api-Ser-Aib-Lys-Lys-Phe-Val-Lys-Aib-Phe-Lys-NH2 | Phe16-Lys17, 24 h | – | – | – | – | – | – | – | – | –
11 | CC[C@H](C)[C@H](NC(=O)CN)C(=O)N[C@@H](CCCCN)C(=O)N[C@@H](CCCCN)C(=O)N[C@@H](Cc1ccccc1)C(=O)N[C@@H](CC(C)C)C(=O)NC1(C(=O)N[C@@H](CO)C(=O)NC(C)(C)C(=O)N[C@@H](CCCCN)C(=O)N[C@@H](CCCCN)C(=O)N[C@@H](Cc2ccccc2)C(=O)N[C@H](C(=O)N[C@@H](CCCCN)C(=O)NC(C)(C)C(=O)N[C@@H](Cc2ccccc2)C(=O)N[C@@H](CCCCN)C(N)=O)C(C)C)CCNCC1 [Peptide 4] (H-GIKKFL[Api]S[Aib]KKFVK[Aib]FK-NH2) | – | 1.56 (≈ 3.11 µg/mL) | 3.125 (≈ 6.23 µg/mL) | 6.25 (≈ 12.5 µg/mL) | – | 12.5 | 12.5 (≈ 24.9 µg/mL) | – | – | –
